Experimental findings from patent US20160046618A1, “Cyclopropyl Fused Thiazin-2-Amine Compounds as Beta-Secretase Inhibitors and Methods of Use” (AMGEN INC., priority 2014, published 2016) are described below.

Bounds are passed on as bounds.

Test [1] addresses Recombinant Cat D (Homo sapiens (Human), UniProt P07339). In words: In vitro enzymatic Cathepsin D (Cat D) FRET assay. It counts as biochemical. The settings on record: read-out: IC50 IP (μM) CatD. The procedure, abridged: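 Assay pH is 3.5 (0.05 M citrate, 5 mM CHAPS, 10% DMSO final) with Cat D from CHO cells. A 20 nM quenched peptide substrate is cleaved over one hour; the reaction is ended with Tris and read by fluorescence (ex 500, em 580 nm).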

In test [2] the target is human recombinant BACE1 (Homo sapiens (Human), UniProt P56817). In words: In vitro enzymatic BACE1 FRET assay. The format is biochemical. To be noted: read-out: IC50 IP (μM) BACE1 enzyme. The method, boiled down: (§1)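 Read-out: dequenched fluorescence, excitation 488 nm, emission 590 nm, after proteolysis of a quenched peptide spanning the BACE cleavage site. Substrate at 50 nM, 1 h incubation, termination by Tris addition to neutral pH.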

Test [3] concerns Aβ40 in conditioned medium of cells stably expressing Amyloid Precursor Protein (APP). In words: In vitro BACE-1 cell-based assay (Aβ40 sandwich ELISA). The settings on record: read-out: IC50 IP (μM) BACE1 cell. The method, boiled down:
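Read-out: time-resolved fluorescence (Streptavidin-Europium) of Aβ40 captured by pAb40 and detected with biotinylated 6E10 from supernatants of APP-stable cells. Cells were exposed to compound for 24 h, 10-point dose response, top dose 100 μM or 10 μM, 0.1% DMSO. IC50 fitted to percent of control.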
Background: An ELISA detects its analyte on a solid surface through an enzyme-linked reagent.

Test [4] deals with human recombinant BACE2 (Homo sapiens (Human), UniProt Q9Y5Z0). In words: In vitro enzymatic BACE2 FRET assay. It counts as biochemical. To be noted: read-out: IC50 IP (μM) BACE2 enzyme. The procedure, abridged:
as §1

Recombinant Cat D, sequence (P07339 65-412): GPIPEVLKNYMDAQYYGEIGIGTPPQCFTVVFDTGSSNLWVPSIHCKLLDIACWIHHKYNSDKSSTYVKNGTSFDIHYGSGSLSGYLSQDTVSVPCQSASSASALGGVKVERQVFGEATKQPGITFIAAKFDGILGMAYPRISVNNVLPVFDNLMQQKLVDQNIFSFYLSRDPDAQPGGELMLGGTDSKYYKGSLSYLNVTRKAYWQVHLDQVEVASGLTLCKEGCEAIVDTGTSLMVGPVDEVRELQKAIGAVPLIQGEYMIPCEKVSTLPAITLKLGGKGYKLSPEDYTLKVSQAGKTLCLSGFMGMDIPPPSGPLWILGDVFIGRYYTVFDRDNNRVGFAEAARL
human recombinant BACE2, sequence (Q9Y5Z0 63-518): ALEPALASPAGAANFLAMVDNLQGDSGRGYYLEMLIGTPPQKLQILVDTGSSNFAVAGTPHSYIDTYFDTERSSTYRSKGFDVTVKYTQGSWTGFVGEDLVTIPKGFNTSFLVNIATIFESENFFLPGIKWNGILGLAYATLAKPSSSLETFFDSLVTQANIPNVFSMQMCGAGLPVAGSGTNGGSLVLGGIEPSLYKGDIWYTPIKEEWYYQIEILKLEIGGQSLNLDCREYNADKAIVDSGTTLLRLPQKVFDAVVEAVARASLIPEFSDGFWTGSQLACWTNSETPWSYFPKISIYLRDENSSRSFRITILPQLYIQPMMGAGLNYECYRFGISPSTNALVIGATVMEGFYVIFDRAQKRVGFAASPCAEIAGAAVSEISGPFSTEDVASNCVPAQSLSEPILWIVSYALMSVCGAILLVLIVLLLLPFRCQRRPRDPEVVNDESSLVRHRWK
human recombinant BACE1, sequence (P56817 46-501): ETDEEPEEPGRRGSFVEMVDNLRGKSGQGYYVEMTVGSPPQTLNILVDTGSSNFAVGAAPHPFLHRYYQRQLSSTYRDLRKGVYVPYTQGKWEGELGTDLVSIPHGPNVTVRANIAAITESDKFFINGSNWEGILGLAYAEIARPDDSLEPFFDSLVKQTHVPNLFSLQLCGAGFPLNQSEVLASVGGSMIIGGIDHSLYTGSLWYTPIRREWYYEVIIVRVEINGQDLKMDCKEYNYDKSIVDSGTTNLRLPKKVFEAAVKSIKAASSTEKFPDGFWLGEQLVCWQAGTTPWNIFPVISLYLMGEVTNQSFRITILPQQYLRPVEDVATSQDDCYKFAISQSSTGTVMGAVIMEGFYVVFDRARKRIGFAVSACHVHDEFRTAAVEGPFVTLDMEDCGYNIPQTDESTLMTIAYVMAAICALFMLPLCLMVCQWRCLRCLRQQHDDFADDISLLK

In general, IC50 refers to the midpoint of a concentration-inhibition curve. Regarding `Cc1nc(OCc2ncco2)cnc1C(=O)Nc1cc(F)c(F)c([C@@]2(C)N=C(N)S[C@@]3(C(F)F)C[C@@H]23)c1` [Example 860, N-(3-((1S,5S,6S)-3-amino-1-(difluoromethyl)-5-methyl-2-thia-4-azabicyclo[4.1.0]hept-3-en-5-yl)-4,5-difluorophenyl)-3-methyl-5-(1,3-oxazol-2-ylmethoxy)-2-pyrazinecarboxamide], the IC50 in test [1] amounted to 1010 µM; in test [2], 0.00276 µM; in test [3], 0.00853 µM; in test [4], 0.0286 µM.

Regarding `C#CCOc1cnc(C(=O)Nc2cc(F)c(F)c([C@@]3(C)N=C(N)S[C@@]4(C(F)F)C[C@@H]34)c2)c(C)n1` [Example 861, N-(3-((1S,5S,6S)-3-amino-1-(difluoromethyl)-5-methyl-2-thia-4-azabicyclo[4.1.0]hept-3-en-5-yl)-4,5-difluorophenyl)-3-methyl-5-(2-propyn-1-yloxy)-2-pyrazinecarboxamide], the IC50 in test [1] amounted to 146 µM; in test [2], 0.000889 µM; in test [3], 0.00754 µM; in test [4] it was 0.0176 µM.

As for `C#CCOc1cnc(C(=O)Nc2cc(F)c(F)c([C@@]3(C)N=C(N)S[C@@]4(COC)C[C@H]43)c2)c(C)n1` [Example 862, N-(3-((1S,5S,6S)-3-amino-1-(methoxymethyl)-5-methyl-2-thia-4-azabicyclo[4.1.0]hept-3-en-5-yl)-4,5-difluorophenyl)-3-methyl-5-(2-propyn-1-yloxy)-2-pyrazinecarboxamide], the IC50 in test [1] worked out at 129 µM; in test [2], 0.000598 µM; in test [3], 0.0072 µM; in test [4], 0.017 µM.

As to `COC[C@]12C[C@H]1[C@@](C)(c1cc(NC(=O)c3ncc(OCc4ncco4)nc3C)cc(F)c1F)N=C(N)S2` [Example 863, N-(3-((1S,5S,6S)-3-amino-1-(methoxymethyl)-5-methyl-2-thia-4-azabicyclo[4.1.0]hept-3-en-5-yl)-4,5-difluorophenyl)-3-methyl-5-(1,3-oxazol-2-ylmethoxy)-2-pyrazinecarboxamide], the IC50 in test [1] worked out at 467 µM; in test [2], 0.00228 µM; in test [3], 0.00635 µM; in test [4], 0.0249 µM.

Consider `COC[C@]12C[C@H]1[C@@](C)(c1cc(NC(=O)c3ncc(O[C@@H](C)c4ncco4)nc3C)cc(F)c1F)N=C(N)S2` [Example 864, N-(3-((1S,5S,6S)-3-amino-1-(methoxymethyl)-5-methyl-2-thia-4-azabicyclo[4.1.0]hept-3-en-5-yl)-4,5-difluorophenyl)-3-methyl-5-((1S)-1-(1,3-oxazol-2-yl)ethoxy)-2-pyrazinecarboxamide], for which the IC50 in test [1] amounted to 621 µM; in test [2] it was 0.0609 µM; in test [3] it was 0.172 µM; in test [4], 0.652 µM.

Regarding `CC#CCOc1cnc2c(Nc3ccc(F)c([C@@]4(CF)N=C(N)S[C@@]5(CF)C[C@H]54)c3)nccc2n1` [Example 865, N-(3-((1S,5S,6S)-3-amino-1,5-bis(fluoromethyl)-2-thia-4-azabicyclo[4.1.0]hept-3-en-5-yl)-4-fluorophenyl)-2-(2-butyn-1-yloxy)pyrido[3,4-b]pyrazin-5-amine], the IC50 in test [1] amounted to 325 µM; in test [2], 0.000236 µM; in test [3] it was 0.00301 µM; in test [4] it was 0.0123 µM.

In the case of `C[C@]1(c2cc(Nc3nccc4nc(OCc5ncco5)cnc34)cc(F)c2F)N=C(N)S[C@@]2(C(F)F)C[C@@H]12` [Example 866, N-(3-((1S,5S,6S)-3-amino-1-(difluoromethyl)-5-methyl-2-thia-4-azabicyclo[4.1.0]hept-3-en-5-yl)-4,5-difluorophenyl)-2-(1,3-oxazol-2-ylmethoxy)pyrido[3,4-b]pyrazin-5-amine], the IC50 in test [1] was over 400 µM; in test [2] it was 0.000941 µM; in test [3] it was 0.0115 µM; in test [4], 0.0285 µM.

`C[C@]1(c2cc(Nc3nccc4nc(OCc5cocn5)cnc34)cc(F)c2F)N=C(N)S[C@@]2(C(F)F)C[C@@H]12` [Example 867, N-(3-((1S,5S,6S)-3-amino-1-(difluoromethyl)-5-methyl-2-thia-4-azabicyclo[4.1.0]hept-3-en-5-yl)-4,5-difluorophenyl)-2-(1,3-oxazol-4-ylmethoxy)pyrido[3,4-b]pyrazin-5-amine]: the IC50 in test [1] came to 299 µM; in test [2] it was 0.00171 µM; in test [3] it was 0.011 µM; in test [4], 0.0549 µM.

Consider `CC#CCOc1cnc2c(Nc3cc(F)c(F)c([C@@]4(C)N=C(N)S[C@@]5(C(F)F)C[C@@H]45)c3)nccc2n1` [Example 868, N-(3-((1S,5S,6S)-3-amino-1-(difluoromethyl)-5-methyl-2-thia-4-azabicyclo[4.1.0]hept-3-en-5-yl)-4,5-difluorophenyl)-2-(2-butyn-1-yloxy)pyrido[3,4-b]pyrazin-5-amine], for which the IC50 in test [1] is over 400 µM; in test [2], 0.000671 µM; in test [3], 0.0147 µM; in test [4], 0.0211 µM.

Consider `CC#CCOc1cnc2c(Nc3cc(F)c(F)c([C@@]4(C)N=C(N)S[C@@]5(COC)C[C@H]54)c3)nccc2n1` [Example 869, N-(3-((1S,5S,6S)-3-amino-1-(methoxymethyl)-5-methyl-2-thia-4-azabicyclo[4.1.0]hept-3-en-5-yl)-4,5-difluorophenyl)-2-(2-butyn-1-yloxy)pyrido[3,4-b]pyrazin-5-amine], for which the IC50 in test [1] is 127 µM; in test [2] it was 0.000725 µM; in test [3], 0.00155 µM; in test [4] it was 0.0173 µM.

Turning to `Cc1nc(COc2cnc3c(Nc4cc(F)c(F)c([C@@]5(C)N=C(N)S[C@@]6(C(F)F)C[C@@H]56)c4)nccc3n2)co1` [Example 870, N-(3-((1S,5S,6S)-3-amino-1-(difluoromethyl)-5-methyl-2-thia-4-azabicyclo[4.1.0]hept-3-en-5-yl)-4,5-difluorophenyl)-2-((2-methyl-1,3-oxazol-4-yl)methoxy)pyrido[3,4-b]pyrazin-5-amine], the half-inhibitory concentration (IC50) in test [1] turned out to be 91.3 µM; in test [2], 0.00156 µM; in test [3], 0.02 µM; in test [4] it was 0.0326 µM.

In the case of `C[C@]1(c2cc(Nc3nccc4nc(OCCCF)cnc34)cc(F)c2F)N=C(N)S[C@@]2(C(F)F)C[C@@H]12` [Example 871, N-(3-((1S,5S,6S)-3-amino-1-(difluoromethyl)-5-methyl-2-thia-4-azabicyclo[4.1.0]hept-3-en-5-yl)-4,5-difluorophenyl)-2-(3-fluoropropoxy)pyrido[3,4-b]pyrazin-5-amine], the IC50 amounted to 352 µM in test [1], 0.0183 µM in test [2], 1.17 µM in test [3] and 0.517 µM in test [4].

Consider `CC(F)(F)COc1cnc2c(Nc3cc(F)c(F)c([C@@]4(C)N=C(N)S[C@@]5(C(F)F)C[C@@H]45)c3)nccc2n1` [Example 872, N-(3-((1S,5S,6S)-3-amino-1-(difluoromethyl)-5-methyl-2-thia-4-azabicyclo[4.1.0]hept-3-en-5-yl)-4,5-difluorophenyl)-2-(2,2-difluoropropoxy)pyrido[3,4-b]pyrazin-5-amine], for which the IC50 in test [1] is 239 µM; in test [2] it was 0.0193 µM; in test [3] it was 2.66 µM; in test [4], 0.441 µM.

As to `C[C@]1(c2cc(Nc3nccc4nc(OCc5ncccc5F)cnc34)cc(F)c2F)N=C(N)S[C@@]2(C(F)F)C[C@@H]12` [Example 873, N-(3-((1S,5S,6S)-3-amino-1-(difluoromethyl)-5-methyl-2-thia-4-azabicyclo[4.1.0]hept-3-en-5-yl)-4,5-difluorophenyl)-2-((3-fluoro-2-pyridinyl)methoxy)pyrido[3,4-b]pyrazin-5-amine], the IC50 in test [1] was found to be 95.1 µM; in test [2], 0.00175 µM; in test [3], 0.287 µM; in test [4] it was 0.0358 µM.

As for `Cc1ccnc(COc2cnc3c(Nc4cc(F)c(F)c([C@@]5(C)N=C(N)S[C@@]6(C(F)F)C[C@@H]56)c4)nccc3n2)n1` [Example 874, N-(3-((1S,5S,6S)-3-amino-1-(difluoromethyl)-5-methyl-2-thia-4-azabicyclo[4.1.0]hept-3-en-5-yl)-4,5-difluorophenyl)-2-((4-methyl-2-pyrimidinyl)methoxy)pyrido[3,4-b]pyrazin-5-amine], the IC50 in test [1] turned out to be 956 µM; in test [2], 0.00361 µM; in test [3], 0.0245 µM; in test [4], 0.0755 µM.

As to `C[C@]1(c2cc(Nc3nccc4nc(OCc5cscn5)cnc34)cc(F)c2F)N=C(N)S[C@@]2(C(F)F)C[C@@H]12` [Example 875, N-(3-((1S,5S,6S)-3-amino-1-(difluoromethyl)-5-methyl-2-thia-4-azabicyclo[4.1.0]hept-3-en-5-yl)-4,5-difluorophenyl)-2-(1,3-thiazol-4-ylmethoxy)pyrido[3,4-b]pyrazin-5-amine], the IC50 was 295 µM in test [1], 0.00296 µM in test [2], 0.0272 µM in test [3] and 0.0352 µM in test [4].
